Test results taken from patent US11597739B2, “Enhancing CD8+ T cells for adoptive T cell therapy by inhibiting PTPN1 (PTP1B) and PTPN2 (TC-PTP)” (The Royal Institution for the Advancement of …, priority 2017, dated 2023).

Test system: mouse CD8 T cells differentiated into Tcm cells
Experiment: Exhaustion and effector markers after CTL re-stimulation (flow cytometry)
Format: cell-based
Conditions: second stimulation with anti-CD3, anti-CD28 and IL-2 for 5 days
Text: FIG. 8 illustrates that pharmacological inhibition of PTPN1/2 reduces expression of exhaustion markers and increases effector-molecule expression after CTL re-stimulation. Flow cytometric analysis of CD8 T cells differentiated into Tcm cells after 5 days of a second stimulation with anti-CD3 and anti-CD28 in presence or absence of K884. Histograms show the expression of exhaustion markers PD-1, CTLA-4, KLRG1 and LAG-3, and granzyme B and IFN-γ as markers of effector CTLs. Cells are gated on live/CD8+/CD62L^high.
2 μg/ml of 145-2C11 Hamster anti-Mouse CD3e in 300 μl of PBS are plated in 24 flat bottom well non-TC treated plates. Incubate O/N at 4° C. CD8 T cells from spleens of 8-12 weeks old OT-1 transgenic mice are isolated. 4×10^5 cells/ml are counted and resuspended in complete RPMI (RPMI+10% FBS heat inactivated at 55° C. for 45 min+Pen/Strep+55 μM β-Mercaptoethanol). The following 2× solutions are prepared:
0.5 ml of 2× solution is added to the corresponding wells. Incubate for 4-8 days. Every 2 days add inhibitor to the corresponding concentration. When the cells are confluent, expand to 6 cm tissue culture plates adding 4 ml of complete RPMI+20 U/ml of IL-2 and in b add 10 μM K884.
Calculate the specific cell lysis as follows: Specific cell lysis=((Sample−BF)/(AF−BF))×100 10) Flow Cytometry 1. Cell Activation • a. Wash cells with 1 ml of culture medium; • b. Centrifuge cells for 5 min at 300 g; • c. Resuspend cells in culture medium; • d. Prepare 2× solutions (negative control with only culture medium, Positive condition with 50 ng/mL of PMA and 500 ng/mL of lonomycin); • e. Plate 100 μL of cell suspension in 96 well plates (U-bottom); • f. Add 100 μL of 2× solutions in appropriate wells; • g. Incubate 4 hours at 37 C, 5% CO2. 2. Extracellular Staining • a. Record cell quantity transfers per tube; • b. Wash cells with 1 mL of PBS+2% FBS; • c. Centrifuge cells for 5 min at 300 g; • d. Empty tubes by inversion; • e. Add the antibodies for extracellular staining; • f. Incubate 20 min at 4° C.; • g. Wash cells with 1 mL of PBS+2% FBS; • h. Centrifuge cells for 5 min at 300 g; • i. […]

Which “expression of exhaustion markers PD-1, CTLA-4, KLRG1” value does the source give for CCOC(=O)c1cc2cc(C(F)(F)P(=O)(O)O)c(Br)cc2s1 [Ex. 1, ((6-BROMO-2-(ETHOXYCARBONYL)BENZO[B]THIOPHEN-5-YL)DIFLUOROMETHYL)PHOSPHONATE] here?
The value was “displayed less exhaustion markers PD-1, CDTLA4 and KLRG1”.

What about the “expression of the receptor LAG-3” value of the same molecule?
The value was “increased expression of the receptor LAG-3”.

And the “levels of Granzyme B and IFN-gamma” value?
Its value is “higher levels of Granzyme B and IFN-gamma”.
